{"source": "patent US7910609B2", "about": "“Inhibitors of integrin alpha2beta1 with modified urea moiety” (The Trustees Of The University Of Pennsylvania, priority 2005, dated 2011)", "key": {"integrin α2β1": {"target": "T1, integrin α2β1 (Homo sapiens, UniProt P05556+P17301)", "T1 construct": "Human blood was obtained by venipuncture from healthy volunteers; endogenous in cells; host or cells: washed human platelets from blood of healthy volunteers", "T1 sequence (P17301 30-1181)": "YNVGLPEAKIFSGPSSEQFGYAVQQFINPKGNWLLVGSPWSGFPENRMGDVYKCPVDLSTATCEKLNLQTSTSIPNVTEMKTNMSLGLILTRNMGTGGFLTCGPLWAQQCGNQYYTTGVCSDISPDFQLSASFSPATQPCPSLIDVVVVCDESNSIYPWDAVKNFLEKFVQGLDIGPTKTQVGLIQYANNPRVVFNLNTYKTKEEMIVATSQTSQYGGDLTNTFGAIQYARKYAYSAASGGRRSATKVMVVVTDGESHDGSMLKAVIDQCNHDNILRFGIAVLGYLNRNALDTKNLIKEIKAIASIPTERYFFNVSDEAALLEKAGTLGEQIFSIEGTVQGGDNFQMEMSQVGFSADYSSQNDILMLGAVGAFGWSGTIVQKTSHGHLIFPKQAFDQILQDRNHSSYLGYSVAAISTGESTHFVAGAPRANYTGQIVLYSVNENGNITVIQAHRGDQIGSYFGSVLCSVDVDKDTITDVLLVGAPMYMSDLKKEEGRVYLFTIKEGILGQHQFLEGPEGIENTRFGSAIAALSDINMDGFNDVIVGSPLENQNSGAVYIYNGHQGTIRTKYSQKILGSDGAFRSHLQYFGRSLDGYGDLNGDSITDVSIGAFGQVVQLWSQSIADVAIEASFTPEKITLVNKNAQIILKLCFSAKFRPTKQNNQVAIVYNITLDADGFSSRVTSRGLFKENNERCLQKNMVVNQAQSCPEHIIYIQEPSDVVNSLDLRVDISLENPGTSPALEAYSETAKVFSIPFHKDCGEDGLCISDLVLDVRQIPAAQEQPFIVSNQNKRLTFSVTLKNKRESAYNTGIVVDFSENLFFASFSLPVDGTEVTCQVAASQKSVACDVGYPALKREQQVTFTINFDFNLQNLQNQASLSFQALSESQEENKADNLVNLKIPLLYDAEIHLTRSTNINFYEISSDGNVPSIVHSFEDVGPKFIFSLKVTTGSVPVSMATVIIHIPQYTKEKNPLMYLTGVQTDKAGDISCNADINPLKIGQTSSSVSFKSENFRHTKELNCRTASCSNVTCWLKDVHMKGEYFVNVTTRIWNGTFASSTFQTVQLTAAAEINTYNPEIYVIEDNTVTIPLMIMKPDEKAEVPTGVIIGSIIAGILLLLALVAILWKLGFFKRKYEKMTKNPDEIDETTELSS", "T1 sequence (P05556 21-798)": "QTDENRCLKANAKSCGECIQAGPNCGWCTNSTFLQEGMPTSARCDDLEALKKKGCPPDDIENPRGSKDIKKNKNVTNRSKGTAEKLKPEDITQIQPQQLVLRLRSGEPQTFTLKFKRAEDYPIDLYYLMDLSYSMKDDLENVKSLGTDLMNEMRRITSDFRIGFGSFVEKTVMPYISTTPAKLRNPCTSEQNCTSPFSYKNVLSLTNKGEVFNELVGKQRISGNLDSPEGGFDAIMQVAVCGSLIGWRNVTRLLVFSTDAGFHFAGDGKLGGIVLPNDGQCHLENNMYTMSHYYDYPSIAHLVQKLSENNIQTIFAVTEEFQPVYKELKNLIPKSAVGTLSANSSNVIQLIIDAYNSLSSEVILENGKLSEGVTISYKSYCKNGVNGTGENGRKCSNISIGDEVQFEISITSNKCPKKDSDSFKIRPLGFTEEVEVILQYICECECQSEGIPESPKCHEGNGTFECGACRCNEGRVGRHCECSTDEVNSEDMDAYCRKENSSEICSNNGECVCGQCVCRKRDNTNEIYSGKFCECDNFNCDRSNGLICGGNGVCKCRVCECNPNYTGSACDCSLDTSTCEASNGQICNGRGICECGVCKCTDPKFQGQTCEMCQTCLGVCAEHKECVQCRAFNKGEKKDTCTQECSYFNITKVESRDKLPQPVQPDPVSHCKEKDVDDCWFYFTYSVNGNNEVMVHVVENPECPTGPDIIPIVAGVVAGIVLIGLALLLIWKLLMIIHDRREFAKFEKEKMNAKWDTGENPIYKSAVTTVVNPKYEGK", "assay": "Platelet adhesion assay: washed human platelet binding to soluble type I collagen", "assay_type": "cell-based", "method": "The series of compounds was tested for the ability to block washed human platelet binding to soluble type I collagen. […] Further understanding was sought with respect to the SAR of the urea functionality and its spatial positioning.\n(§1) Preparation of Washed Platelets. All Studies were Conducted Following IRB-approved protocols at the University of Pennsylvania. Human blood was obtained by venipuncture from healthy volunteers using 0.3% sodium citrate as anticoagulant, then acid-citrate-dextrose was added (1 mL per 10 mL blood). Platelet-rich plasma (PRP) was then prepared by centrifugation at 200 g for 20 min. Platelets were obtained from the PRP by addition of prostacyclin (PG I2: 0.1 μg/ml) followed by centrifugation at 1000 g for 10 min. The pelleted platelets were resuspended in HEPES/Tyrode's buffer (20 mM HEPES, 129 mM NaCl, 0.34 mM Na2HPO4, 2.9 mM KCl, 12 mM NaHCO3, 5 mM glucose, 1 mm MgCl2, pH 7.3) and repelleted by repeated PG I2 addition and centrifugation.\n(§2) Platelet Adhesion Assays. Immulon 2 flat bottom 96-well Plates (Dynatech Labs, Burlington, Mass.) were coated with soluble type I collagen, fibronectin (FN) or osteopontin (OPN) (5 μg/ml) in PBS for 48 hrs at 4° C. The plates were then washed and blocked with BSA (5 mg/ml in PBS) for at least 24 hr. Adhesion assays using type I collagen contained test compound and 1.6×10^7 Platelets in GFP buffer in a final volume of 100 μl. The plates were then incubated for 30 min at 37° C. and washed with TBS (10 mM Tris, 150 mM NaCl, pH 7.4). Quantification of adherent platelets was performed as previously described.^[27] Briefly, the platelets were stained for acid phosphatase by adding 0.1 M sodium citrate (pH 5.4) with 0.1% Triton X-100 containing 5 mM p-nitrophenyl phosphate substrate (100 μl/well) and incubated for 40 min at 37° C. Color was then developed by the addition of 50 μl 2.0 M NaOH per well and the plates were read at 405 nm in a Molecular Devices Spectra Max M5 microplate reader. Adhesion to FN- and OPN-coated plates were performed similarly using a modified GFP buffer for resuspension (4 mM HEPES, 147 mM NaCl, 2.7 mM KCl, 0.35% BSA, 0.1% glucose, 1 mM MgCl2, 1 mM MnCl2, pH 7.4). Platelets were stimulated in OPN binding by addition of 20 μM ADP during incubation.^[28] The platelets in αvβ3-mediated binding to FN were pre-treated with 2 μg per mL ReoPro (abciximab, chimeric 7E3 Fab; Centocor, Malvern Pa.) for 20 minutes at RT."}, "integrin α5β1": {"target": "T2, integrin α5β1 (Homo sapiens, UniProt P05556+P08648)", "T2 construct": "Platelets express several integrins, including αIIbβ3, αvβ3, α2β1, α5β1, and α6β1; endogenous in cells; host or cells: washed human platelets from blood of healthy volunteers", "T2 sequence (P08648 42-894 limits assumed)": "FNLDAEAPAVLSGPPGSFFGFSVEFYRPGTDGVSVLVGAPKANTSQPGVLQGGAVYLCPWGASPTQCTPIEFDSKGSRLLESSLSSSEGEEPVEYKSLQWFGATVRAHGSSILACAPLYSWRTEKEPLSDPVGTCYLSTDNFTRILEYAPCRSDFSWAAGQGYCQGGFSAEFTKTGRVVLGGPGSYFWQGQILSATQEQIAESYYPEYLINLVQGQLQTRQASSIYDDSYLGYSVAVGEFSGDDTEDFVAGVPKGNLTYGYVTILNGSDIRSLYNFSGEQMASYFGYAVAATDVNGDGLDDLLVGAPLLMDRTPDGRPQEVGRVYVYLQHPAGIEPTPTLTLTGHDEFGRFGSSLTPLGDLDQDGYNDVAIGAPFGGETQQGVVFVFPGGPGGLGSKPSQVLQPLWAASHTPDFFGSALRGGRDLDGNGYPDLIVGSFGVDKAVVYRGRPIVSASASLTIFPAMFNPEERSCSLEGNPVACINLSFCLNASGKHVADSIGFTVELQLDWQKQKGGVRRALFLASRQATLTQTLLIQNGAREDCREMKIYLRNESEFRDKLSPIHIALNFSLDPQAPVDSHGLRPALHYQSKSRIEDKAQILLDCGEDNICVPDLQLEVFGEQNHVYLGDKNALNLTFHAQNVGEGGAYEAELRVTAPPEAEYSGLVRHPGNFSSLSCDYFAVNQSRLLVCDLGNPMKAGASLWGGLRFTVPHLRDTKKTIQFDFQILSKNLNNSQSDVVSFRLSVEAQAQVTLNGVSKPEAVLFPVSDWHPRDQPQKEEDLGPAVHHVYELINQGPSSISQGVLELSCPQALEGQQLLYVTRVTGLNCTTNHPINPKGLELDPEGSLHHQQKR", "T2 sequence (P08648 895-1049 limits assumed)": "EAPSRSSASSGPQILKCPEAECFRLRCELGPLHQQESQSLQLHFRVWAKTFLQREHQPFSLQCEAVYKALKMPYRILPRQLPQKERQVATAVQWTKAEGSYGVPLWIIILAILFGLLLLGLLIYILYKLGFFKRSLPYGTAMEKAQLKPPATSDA", "T2 sequence (P05556 21-798)": "as the sequence (P05556 21-798) above", "assay": "Platelet adhesion to fibronectin (in the presence of abciximab)", "assay_type": "cell-based", "details": "Table 2 selectivity, ligand Fibronectin", "method": "as §1\nas §2, with “The platelets in αvβ3-mediated binding to FN were pre-treated with 2 μg per mL ReoPro (abciximab, chimeric 7E3 Fab; Centocor, Malvern Pa.) for 20 minutes at RT.” left out"}, "[1]": {"details": "Table 1, washed human platelets, soluble type I collagen, 30 min at 37° C."}, "[2]": {"details": "Compounds Produced in Accordance with Scheme 2"}}, "note": "pIC50: −log10 of the molar value."}
{"smiles": "CC1(C)SCN(S(=O)(=O)c2ccccc2)C1C(=O)N[C@@H](CNC(=O)NCC(c1ccccc1)c1ccccc1)C(=O)O", "note": "(some centres unmarked) [Compound 20]", "values": [{"measurement": "pIC50", "setting": "integrin α2β1; [1]", "value": "< 5.70"}]}
{"smiles": "Cc1ccc(CNC(=O)NC[C@H](NC(=O)C2N(S(=O)(=O)c3ccccc3)CSC2(C)C)C(=O)O)cc1", "note": "(some centres unmarked) [Compound 11]", "values": [{"measurement": "pIC50", "setting": "integrin α2β1; [1]", "value": 8.22}]}
{"smiles": "CC1(C)SCN(S(=O)(=O)c2ccccc2)C1C(=O)N[C@@H](CNC(=O)NCc1ccc(Br)cc1)C(=O)O", "note": "(some centres unmarked) [Compound 16]", "values": [{"measurement": "pIC50", "setting": "integrin α2β1; [1]", "value": 8.40}]}
{"smiles": "O=C(NCc1ccccc1)NCC(NC(=O)C1CCN1S(=O)(=O)c1ccccc1)C(=O)O", "note": "(centres unmarked) [Compound 24, 2-[(1-Benzenesulfonyl-azetidine-2-carbonyl)-amino]-3-(3-benzyl-ureido)-propionic acid]", "values": [{"measurement": "pIC50", "setting": "integrin α2β1; [2]", "value": 6.67}]}
{"smiles": "CC(C)(C)CNC(=O)NC[C@H](NC(=O)C1N(S(=O)(=O)c2ccccc2)CSC1(C)C)C(=O)O", "note": "(some centres unmarked) [Compound 19]", "values": [{"measurement": "pIC50", "setting": "integrin α2β1; [1]", "value": 7.82}]}
{"smiles": "C[C@@H](NC(=O)NC[C@H](NC(=O)C1N(S(=O)(=O)c2ccccc2)CSC1(C)C)C(=O)O)c1ccccc1", "note": "(some centres unmarked) [Compound 7]", "values": [{"measurement": "greater potency of (R) conformation (7) than (S) conformation (8)", "setting": "integrin α2β1; 7 versus 8, platelet adhesion to type I collagen", "value": "> 25", "unit": "fold"}, {"measurement": "pIC50", "setting": "integrin α2β1; [1]", "value": 7.66}]}
{"smiles": "CC1(C)SCN(S(=O)(=O)c2ccccc2)C1C(=O)N[C@@H](CNC(=O)NC(c1ccccc1)c1ccccc1)C(=O)O", "note": "(some centres unmarked) [Compound 21]", "values": [{"measurement": "pIC50", "setting": "integrin α2β1; [1]", "value": 6.49}]}
{"smiles": "Cc1cccc(CNC(=O)NC[C@H](NC(=O)C2N(S(=O)(=O)c3ccccc3)CSC2(C)C)C(=O)O)c1", "note": "(some centres unmarked) [Compound 10]", "values": [{"measurement": "pIC50", "setting": "integrin α2β1; [1]", "value": 8.10}, {"measurement": "pIC50", "setting": "integrin α5β1", "value": "< 6.00"}]}
{"smiles": "CC1(C)SCN(S(=O)(=O)c2ccccc2)C1C(=O)N[C@@H](CNC(=O)NCC1CCCCC1)C(=O)O", "note": "(some centres unmarked) [Compound 23]", "values": [{"measurement": "pIC50", "setting": "integrin α2β1; [1]", "value": 7.55}]}
{"smiles": "CC1(C)SCN(S(=O)(=O)c2ccccc2)C1C(=O)N[C@@H](CNC(=O)NCc1ccc(Cl)cc1)C(=O)O", "note": "(some centres unmarked) [Compound 15]", "values": [{"measurement": "pIC50", "setting": "integrin α2β1; [1]", "value": 8.22}, {"measurement": "pIC50", "setting": "integrin α5β1", "value": "< 6.00"}]}
{"smiles": "C[C@H](NC(=O)NC[C@H](NC(=O)C1N(S(=O)(=O)c2ccccc2)CSC1(C)C)C(=O)O)c1ccccc1", "note": "(some centres unmarked) [Compound 8]", "values": [{"measurement": "pIC50", "setting": "integrin α2β1; [1]", "value": "< 6.30"}]}
{"smiles": "CC1OCN(S(=O)(=O)c2ccccc2)C1C(=O)NC(CNC(=O)NCc1ccccc1)C(=O)O", "note": "(centres unmarked) [Compound 27, 2-[(3-Benzenesulfonyl-5-methyl-oxazolidine-4-carbonyl)-amino]-3-(3-benzyl-ureido)-propionic acid]", "values": [{"measurement": "pIC50", "setting": "integrin α2β1; [2]", "value": 7.92}]}
{"smiles": "CC1(C)SCN(S(=O)(=O)c2ccccc2)C1C(=O)N[C@@H](CNC(=O)NCCc1ccccc1)C(=O)O", "note": "(some centres unmarked) [Compound 22]", "values": [{"measurement": "pIC50", "setting": "integrin α2β1; [1]", "value": 6.88}]}
{"smiles": "CC1(C)SCN(S(=O)(=O)c2ccccc2)C1C(=O)N[C@@H](CNC(=S)NCc1ccccc1)C(=O)O", "note": "(some centres unmarked) [Compound 6]", "values": [{"measurement": "pIC50", "setting": "integrin α2β1; [1]", "value": 8.15}]}
{"smiles": "Cc1ccccc1CNC(=O)NC[C@H](NC(=O)C1N(S(=O)(=O)c2ccccc2)CSC1(C)C)C(=O)O", "note": "(some centres unmarked) [Compound 9]", "values": [{"measurement": "pIC50", "setting": "integrin α2β1; [1]", "value": 8.40}, {"measurement": "pIC50", "setting": "integrin α5β1", "value": "< 6.00"}]}
{"smiles": "CC1(C)SCN(S(=O)(=O)c2ccccc2)C1C(=O)N[C@@H](CNC(=O)NCc1ccc(C(F)(F)F)cc1)C(=O)O", "note": "(some centres unmarked) [Compound 17]", "values": [{"measurement": "pIC50", "setting": "integrin α2β1; [1]", "value": 7.39}]}
